In patent US8067532B2, “Modifications of peptide compositions to increase stability and delivery efficiency” (KAI Pharmaceuticals, Inc., priority 2007, dated 2011):
No end group written: not given here.

Key:
[1] = versus KAI-9706 and KAI-9803
[2] = Plasma stability of capped peptides (KAI-9706 modified step-wise at amino and carboxy termini); type: in vitro ADME, rat; conditions: versus uncapped KAI-9706
Source text: Plasma stability of capped peptides was compared.

[3] = versus KAI-9706 and KAI-9803; remark: listed apart in the source
[4] = tested on: brain tissue; assay: Stroke model, percent infarction; type: in vivo; conditions: versus uncapped KAI-9706
Method: KAI-1455 was tested in a stroke model.

[5] = versus KAI-9706 and KAI-9803; remark: listed apart in the source
[6] = tested on: cardiac tissue; assay: Langendorff assay, in vitro post-ischemia model (CK release); parameters: species or system rat; conditions: versus the unmodified form
Method: The ability of the capped composition to inhibit ischemic damage in a rat heat model (Langendorff Assay) was evaluated versus the uncapped form.

[7] = Effect of D-peptides on plasma stability of KAI-9706; conditions: All-L, scrambled or retro-inverso (R/I) carrier and cargo
Method: KAI-9706 was engineered with D-amino acids to determine their impact on peptide composition stability. Unmodified KAI-9706 was compared to a peptide composition with the same amino acid sequence, however the amino acids used were d-enantiomers instead of 1-amino acids. A retro-inverso version and a scrambled version of the peptide composition were also prepared.

[8] = In vitro biological stability of linear epsilon PKC inhibitors in human serum; type: in vitro ADME; conditions: LC/MS; for stability in human serum (percent remaining over time): 100 μg/ml, room temperature
Method: The peptides were then analyzed by LC/MS.

**Q.** With `CC[C@H](C)[C@H](NC(=O)[C@@H]1CCCN1C(=O)[C@H](C)NC(=O)[C@H](CC(=O)O)NC(=O)[C@H](Cc1c[nH]cn1)NC(=O)[C@@H](N)CSSC[C@H](NC(C)=O)C(=O)N[C@@H](Cc1ccc(O)cc1)C(=O)NCC(=O)N[C@@H](CCCNC(=N)N)C(=O)N[C@@H](CCCCN)C(=O)N[C@@H](CCCCN)C(=O)N[C@@H](CCCNC(=N)N)C(=O)N[C@@H](CCCNC(=N)N)C(=O)N[C@@H](CCC(N)=O)C(=O)N[C@@H](CCCNC(=N)N)C(=O)N[C@@H](CCCNC(=N)N)C(=O)N[C@@H](CCCNC(=N)N)C(N)=O)C(=O)NCC(=O)N[C@@H](Cc1ccc(O)cc1)C(=O)N[C@@H](CC(=O)O)C(=O)O` [KAI-1455] as the compound, how does the “stability in pig serum (percent intact over time)” value [1] read?
**A.** The value was “increased plasma stability”.

**Q.** What about the plasma half life [2] of the same compound?
**A.** The plasma half life was “increase the plasma half life”.

**Q.** And the “stability in human serum (percent intact over time)” value [3]?
**A.** Its value is “increased plasma stability”.

**Q.** And the “protection to brain tissue as judged by percent infract” value [4]?
**A.** The value was “increased protection to brain tissue”.

**Q.** What about the “stability in rat serum (percent intact over time)” value [5] of the same compound?
**A.** Its value is “increased plasma stability”.

**Q.** What about the “ability to inhibit ischemic damage (potency, CK release)” value [6] of the same compound?
**A.** The value was “Maintains In Vitro Potency”.

**Q.** Which “% parent remaining at 15 mins” value [7] does the source give for `CC[C@H](C)[C@H](NC(=O)[C@@H]1CCCN1C(=O)[C@H](C)NC(=O)[C@H](CC(=O)O)NC(=O)[C@H](Cc1c[nH]cn1)NC(=O)[C@@H](N)CSSC[C@H](N)C(=O)N[C@@H](Cc1ccc(O)cc1)C(=O)NCC(=O)N[C@@H](CCCNC(=N)N)C(=O)N[C@@H](CCCCN)C(=O)N[C@@H](CCCCN)C(=O)N[C@@H](CCCNC(=N)N)C(=O)N[C@@H](CCCNC(=N)N)C(=O)N[C@@H](CCC(N)=O)C(=O)N[C@@H](CCCNC(=N)N)C(=O)N[C@@H](CCCNC(=N)N)C(=O)N[C@@H](CCCNC(=N)N)C(=O)O)C(=O)NCC(=O)N[C@@H](Cc1ccc(O)cc1)C(=O)N[C@@H](CC(=O)O)C(=O)O` [KAI-9706] here?
**A.** Its value is 1%.

**Q.** Which “stability in human serum (percent remaining over time)” value [8] does the source give for Ac-EAVSLKPTGGYGRKKRRQRRR-NH2 [KP-1678] here?
**A.** The value was “increased stability”.

**Q.** Which “stability in human serum (percent remaining over time)” value [8] does the source give for EAVSLKPTGGYGRKKRRQRRR-NH2 [KP-1633] here?
**A.** The value was “increased stability”.

**Q.** Which “degradation products / metabolized forms” value ([8]; serum) does the source give for “KP-1680: linear epsilon PKC inhibitor peptide shown in FIG. 16 (EAVSLKPTGGYGRKKRRQRRR)” here?
**A.** Its value is “sequential cleavage of arginine residues from the C-terminus”.
